By pKd is commonly meant −log10 of the Kd, conventionally taken in molar units.

The values that follow come from BindingDB's records for doi:10.1021/acs.jmedchem.1c00742 (H. Lee Moffitt Cancer Center and Research Institute, 2021).

The assay has as its target T1, B-cell CLL/lymphoma 9 protein (Homo sapiens, UniProt O00512).
T1 sequence (O00512 whole entry): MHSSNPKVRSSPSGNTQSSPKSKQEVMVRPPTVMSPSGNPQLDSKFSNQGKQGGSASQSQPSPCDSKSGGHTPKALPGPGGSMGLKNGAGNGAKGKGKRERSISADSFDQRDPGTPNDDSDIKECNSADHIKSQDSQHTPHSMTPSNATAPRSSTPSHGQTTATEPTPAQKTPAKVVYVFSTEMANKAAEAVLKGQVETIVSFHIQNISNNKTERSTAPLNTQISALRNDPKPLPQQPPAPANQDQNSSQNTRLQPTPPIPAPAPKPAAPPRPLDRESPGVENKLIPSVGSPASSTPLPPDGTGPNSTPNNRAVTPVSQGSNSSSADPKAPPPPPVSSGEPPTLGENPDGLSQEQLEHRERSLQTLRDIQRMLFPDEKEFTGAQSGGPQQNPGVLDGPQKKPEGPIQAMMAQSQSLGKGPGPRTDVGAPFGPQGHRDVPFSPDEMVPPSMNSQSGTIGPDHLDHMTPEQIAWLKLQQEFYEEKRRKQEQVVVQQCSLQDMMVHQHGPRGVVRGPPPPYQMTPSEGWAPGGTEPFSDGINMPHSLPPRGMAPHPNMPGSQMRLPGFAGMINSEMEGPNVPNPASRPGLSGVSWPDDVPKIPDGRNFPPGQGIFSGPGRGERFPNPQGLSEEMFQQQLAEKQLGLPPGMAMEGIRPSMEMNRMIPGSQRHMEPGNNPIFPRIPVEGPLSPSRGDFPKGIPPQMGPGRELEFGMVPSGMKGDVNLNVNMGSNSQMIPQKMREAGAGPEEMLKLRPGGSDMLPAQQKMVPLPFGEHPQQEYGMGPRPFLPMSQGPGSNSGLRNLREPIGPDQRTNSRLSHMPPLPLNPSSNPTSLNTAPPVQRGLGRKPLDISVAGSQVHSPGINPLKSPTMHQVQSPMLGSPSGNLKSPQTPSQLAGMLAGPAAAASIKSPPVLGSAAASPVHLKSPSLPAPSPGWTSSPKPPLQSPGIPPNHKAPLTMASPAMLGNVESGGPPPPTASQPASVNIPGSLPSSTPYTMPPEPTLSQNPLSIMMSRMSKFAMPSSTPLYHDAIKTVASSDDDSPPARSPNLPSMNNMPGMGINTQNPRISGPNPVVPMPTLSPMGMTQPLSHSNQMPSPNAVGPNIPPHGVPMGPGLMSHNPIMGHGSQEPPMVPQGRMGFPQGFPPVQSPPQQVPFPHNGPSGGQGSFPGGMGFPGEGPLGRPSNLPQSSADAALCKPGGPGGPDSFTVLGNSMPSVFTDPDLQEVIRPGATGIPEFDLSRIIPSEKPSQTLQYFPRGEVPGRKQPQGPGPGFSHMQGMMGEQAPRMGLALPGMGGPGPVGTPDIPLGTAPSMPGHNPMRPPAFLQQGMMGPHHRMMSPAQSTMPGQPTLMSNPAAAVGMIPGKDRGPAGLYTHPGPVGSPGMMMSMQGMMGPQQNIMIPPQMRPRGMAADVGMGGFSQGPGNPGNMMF
The experiment in a line: Competitive binding affinity to C-terminal 6-His-tagged beta-catenin (1 to 781 residues) (unknown origin) expressed in Escherichia coli BL21 (DE3)- N-terminal biotinylated human BCL9 (350 to 375 residues) assessed as apparent dissociation constant incubated for 2 hrs by AlphaScreen assay. (Bead proximity is the source of the signal in Alpha formats.)

pKd: −log10 of the molar value.

On to `CC(C)(Oc1cccc(N2CCC[C@@H](C(=O)N(CCOCCOCCNC(=O)CCCC[C@@H]3SC[C@@H]4NC(=O)N[C@@H]43)Cc3ccc(-c4cn[nH]c4)cc3)C2)c1)C(=O)N1CCNCC1`, for which the pKd was 6.11.
